Data from patent US8258100B2, “Ligand/lytic peptide methods of use” (Board of Supervisors of Louisiana State University and …, priority 1997, dated 2012).
Where no end group is shown, it is not given here.

Tests used:
female rabbits = assay: mature female rabbits, intravenous GnRH-hecate, GnRH challenge day 6, sacrifice day 7; type: in vivo, rabbit; settings: 10 mg IV
Procedure: Nine sexually mature female rabbits were injected intravenously with saline containing 0 mg (n=4) (Treatment 46) or 10 mg GnRH-hecate (n=5) (Treatment 47). Rabbits were injected intramuscularly with GnRH on day 6 posttreatment. Blood samples were collected for radioimmunoassay of LH and FSH as described above, and the animals were sacrificed on day 7 post-treatment. […] The effects of GnRH-hecate on CNS morphology and immunocytochemical results were similar to those described above in Examples 34-45. Again, the effects were more pronounced on GnRH neurons than on staining of pituitary gonadotropes.

[1] = test system: female New Zealand rabbits; assay: mature female New Zealand rabbits, intravenous GnRH-hecate, GnRH challenge day 46, necropsy day 47; type: in vivo, rabbit; settings: 5 or 10 mg IV
Procedure: Seven sexually mature female New Zealand rabbits were injected intravenously with saline containing GnRH-hecate as follows:
Forty-six days later all rabbits were injected intramuscularly with 100 μg GnRH. Blood samples were collected at 0, 1, 4, and 24 hours, and LH and FSH levels in the blood samples were measured by radioimmunoassay. […] The rabbits were sacrificed the next day (day 47) for postmortem histological analysis. […] Ovarian and pituitary weights were reduced by the 10 mg GnRH-hecate treatment.

[2] = test system: sexually immature female rats; assay: immature female rats, intravenous GnRH-hecate or GnRH then hecate, histology and immunocytochemistry at 14 days; type: in vivo, rat; settings: as E29
Procedure: Another set of experiments was performed to study the in vivo effects of the GnRH-hecate conjugate on female rats and rabbits. The ovaries, uterus, oviducts, adrenals, spleen, thyroids, pancreas, liver, lungs, and heart were processed for histological analysis. […] The immunocytochemical staining procedures we used followed generally the procedures of M. Rahmanian et al., “Histological and immunocytochemical characterization of pituitary cell types in ponies,” Proc. 13th Soc. Equine Nutrition & Phys. Symp., pp. 348-349 (1993); M. Rahmanian et al., “Immunocytochemical localization of luteinizing hormone and follicle-stimulating hormone in the equine pituitary,” J. Anim. Sci., vol. 76, pp. 839-846 (1998); M. Rahmanian et al., “Immunocytochemical localization of prolactin and growth hormone in the equine pituitary,” Animal Sci., vol. 75, pp. 3010-3018 (1997); and P. Melrose et al., “Comparative topography of the immunoreactive alpha-melanocyte-stimulating hormone neuronal system in the brains of horses and rats,” Brain Beh. & Evol., vol. 32, pp. 226-235 (1988).
Brains were serially sectioned on a Vibrotome from the level of the diagonal band of Broca to the mammillary body. […]

Diatraea saccharalis = assay: fertility of sugar cane borer after inoculation of late-stage pupae; type: in vivo; settings: 10 pupae inoculated, 1.0 μL of 1.35 mM peptide in saline
Procedure: Late-stage Diatraea saccharalis (sugar cane borer) pupae were inoculated with 1.0 μL of saline solution containing 1.35 mM concentration of peptide as stated, or saline alone as control. The pupae were allowed to complete metamorphosis. […] Adult female moths were allowed to mate with treated males, and then lay eggs. The viability of the eggs was measured by counting the number hatching into larvae.

[3] = test system: sexually immature female rats; assay: immature female rats, intravenous GnRH-hecate dose series; type: in vivo, rat; settings: 0.1 to 1.5 mg IV, 24 hours or 14 days
Procedure: Sexually immature (33 day old) female rats (randomly allocated into groups of three) were injected intravenously with saline or GnRH-hecate in saline as follows:
Animals were sacrificed at 24 hours or at 14 days after treatment. […] In the rats sacrificed fourteen days after treatment, 66% and 87% of the GnRH-receptor-containing neurons were abnormal in the rats that had received 1.0 and 1.5 mg of GnRH-hecate, respectively. Axonal degeneration in the 1.5 mg GnRH-hecate group was accompanied by over 90% reduction in median eminence staining for GnRH.

[4] = test system: Sprague-Dawley female rats; assay: Sprague-Dawley female rats, single intravenous treatment, necropsy at 48 or 96 hours, PAS stain of pituitary; type: in vivo, rat; settings: D-hecate 674 μg, GnRH 334 μg, GnRH-hecate 1 mg
Procedure: Eight sexually mature, Sprague-Dawley female rats were randomly assigned to one of eight treatments. Each group of rats received a single treatment intravenously, as described below. Rats were sacrificed and necropsied either 48 or 96 hours after treatment. The ovaries, uterus, pancreas, liver, spleen, lungs, heart, thyroid, and adrenal glands were fixed in 10% buffered formalin; sectioned; and stained with H&E (hematoxylin and eosin) stain; except that the pituitary glands were stained with PAS (periodic acid-Schiff) stain with no counter-stain. The treatments were selected so that each animal received an equimolar amount of the compound with which it was treated.

bovine granulosa cells = assay: in vitro lysis of bovine granulosa cells; type: cell-based; settings: hecate alone, versus small luteal cells
Text: We also studied in vitro lysis of bovine granulosa cells with GnRH-hecate conjugate and with hecate-bLH conjugate. Granulosa cells were isolated from bovine pre-ovulatory follicles. (Granulosa cells are hormonally active cells with numerous LH receptors.) Our experiments with granulosa cells were otherwise generally similar to those described above for Examples 24-31.

DU145 cells = assay: in vitro lysis of human prostate cancer cells, Trypan blue exclusion; type: cell-based; settings: 22 hours; GnRH-hecate 50 μM; free hecate 30 μM; hecate-bLH 90 or 60 μM
Text: LNCaP FGC and DU145 human prostate cancer cell lines were purchased from the American Type Culture Collection (ATCC, Rockville Md.), ATCC accession numbers CRL 1740 and HTB-81, respectively. The LNCaP FGC adenocarcinoma cell line was originally obtained from a person. LNCaP FGC cells are sensitive to dihydrotestosterone and to estrogens (A+). The DU145 carcinoma was originally isolated from the brain of a person with metastatic carcinoma of the prostate; this cell line is not sensitive to steroid hormones (A−).
Cells were detached from culture flasks, and 1000 cells/well were transferred to 24 well culture plates. The cells were incubated for 24 hours with 10% calf serum. Cells were subsequently incubated without serum for 48 hours. Cells were then incubated for 22 hours with one of the following treatments:
Trypan blue exclusion was used to assess viability of the cells after treatment. […] However, treatment with a lytic peptide alone may not be selective in vivo unless specific cell types are separately stimulated, for example by hormones controlling their activity.

[5] = test system: sexually mature female rats; assay: sexually mature female rats, double intravenous treatment, necropsy two weeks later; type: in vivo, rat; settings: IV twice 24 hours apart, two weeks after, GnRH/hecate 2 x 0.5 mg, GnRH 162 μg then 15 minutes later hecate 337 μg
Text: Eighteen sexually mature, mixed breed, female rats were randomly assigned to one of six groups containing three rats each. Each group of rats received a double treatment intravenously, as described below. Two weeks after the treatment, the rats were sacrificed and necropsied. The reproductive and endocrine organs were sectioned, weighed, and examined histologically.

[6] = test system: pituitary basophilic (gonadotropic) cells; assay: rat pituitary gland sections in tissue culture, histology after treatment; type: cell-based; settings: ten hours after treatment, 37° C.; GnRH 5 ng/mL; hecate 50 μM; GnRH 5 ng/mL 15 minutes, wash, then hecate 50 μM; modified GnRH/hecate 50 μM
Procedure: The pituitary gland of an adult female rat was harvested and divided into six sections of approximately equal size. One section was placed in each of six wells containing tissue culture medium at 37° C. A different treatment was applied to each well, as described below. Ten hours after treatment, the tissue from each well was fixed, and the histology of each was examined microscopically.

[7] = test system: bovine small luteal cells; assay: in vitro lysis of bovine small luteal cells (Trypan Blue exclusion, lactic dehydrogenase release); type: cell-based, cattle; settings: 22 hr incubation
Procedure: We studied in vitro lysis of bovine luteal cells with GnRH-hecate conjugate and with hecate-bLH conjugate (SEQ. ID NO. 12). (The bLH component of the conjugate is a 15-mer fragment of the beta chain of luteinizing hormone, SEQ. ID NO. 11). Small luteal cells were collected from cattle corpora lutea post-slaughter.
Small luteal cells in culture were incubated with one of the following treatments for 22 hours, and were then examined for viability using Trypan Blue exclusion and release of lactic dehydrogenase.

Substance | effects on peripheral tissues or pituitary weight (female rabbits) | hippocampus and other areas of the brain containing high concentrations of GnRH [1] | C1 and C3 fields of the hippocampus [2] | pathological changes in other tissues [2] | pupae completing metamorphosis into adult moths (Diatraea saccharalis) | VP staining in the CNS [3] | gross lesions in the organs [4] | susceptibility of granulosa cells to killing (bovine granulosa cells) | killing of cells (viability) (DU145 cells) | ovarian function / histology [5] | histology of pituitary tissue after treatment [6] | cell death of small luteal cells ([7]; 1 μM) | killing of small luteal cells ([7]; 5 μM) | killing of small luteal cells ([7]; 10 μM)
QHWSYGLRPGFALALKALKKALKKLKKALKKAL [GnRH-hecate] | No effects were noticed | not discernibly affected | histological damage to cells | No pathological changes were noted in any other tissues | Eight | not altered | No gross lesions were noted in the organs of any of the four animals, other than the pituitary | – | – | – | – | – | – | –
hecate: amphipathic lytic peptide; synthetic peptide analog of melittin (SEQ. ID NO. 2) (FALALKALKKALKKLKKALKKAL) [reference compound] | – | – | – | – | – | – | – | much more susceptible to killing by hecate alone than were the small luteal cells | killed by hecate alone | normal ovarian function | appeared normal | did not differ significantly from negative control | approximately 50% | Significant killing
